Measurements published in US6750239B2, “Pyrazole-derived kinase inhibitors and uses thereof” (Vertex Pharmaceuticals Incorporated, priority 2001, dated 2004).

Key:
[1] = tested on: Colon cancer cells (HT-29 cell line); test: ERK inhibition cell proliferation assay (3H-thymidine uptake); format: cell-based; conditions: Homo sapiens, HT-29 cells, 3 days incubation
Method: Compounds may be assayed for the inhibition of ERK2 by a cell proliferation assay. In this assay, a complete media is prepared by adding 10% fetal bovine serum and penicillin/streptomycin solution to RPMI 1640 medium (JRH Biosciences). Colon cancer cells (HT-29 cell line) are added to each of 84 wells of a 96 well plate at a seeding density of 10,000 cells/well/150 μL. The cells are allowed to attach to the plate by incubating at 37° C. for 2 hours. A solution of test compound is prepared in complete media by serial dilution to obtain the following concentrations: 20 μM, 6.7 μM, 2.2 μM, 0.74 μM, 0.25 μM, and 0.08 μM. The test compound solution (50 μL) is added to each of 72 cell-containing wells. To the 12 remaining cell-containing wells, only complete media (200 μL) is added to form a control group in order to measure maximal proliferation. To the remaining 12 empty wells, complete media is added to form a vehicle control group in order to measure background. The plates are incubated at 37° C. for 3 days. A stock solution of ^3H-thymidine (1 mCi/mL, New England Nuclear, Boston, Mass.) is diluted to […] in RPMI medium then 20 μL of this solution is added to each well. The plates are further incubated at 37° C. for 8 hours then harvested and analyzed for ^3H-thymidine uptake using a liquid scintillation counter.

activated ERK2 = activated ERK2 (Homo sapiens, UniProt P28482); test: ERK2 inhibition spectrophotometric coupled-enzyme assay; format: biochemical; conditions: activated ERK2 10 nM, 65 μM ATP, 30° C., pH 7.5; read-out: ERK2 Inhibitory Activity (Ki class)
Method: Compounds are assayed for the inhibition of ERK2 by a spectrophotometric coupled-enzyme assay (Fox et al (1998) Protein Sci 7, 2249). In this assay, a fixed concentration of activated ERK2 (10 nM) is incubated with various concentrations of the compound in DMSO (2.5%) for 10 min. at 30° C. in 0.1 M HEPES buffer, pH 7.5, containing 10 mM MgCl2, 2.5 mM phosphoenolpyruvate, 200 μM NADH, 150 μg/mL pyruvate kinase, 50 μg/mL lactate dehydrogenase, and 200 μM erktide peptide. The reaction is initiated by the addition of 65 μM ATP. The rate of decrease of absorbance at 340 nm is monitored, which indicates the extent of uninhibited enzyme present in the assay. The IC50 is evaluated from the rate data as a function of inhibitor concentration.
The compound numbers correspond to the compound numbers in Tables 1-3.

activated ERK2, sequence (P28482 whole entry): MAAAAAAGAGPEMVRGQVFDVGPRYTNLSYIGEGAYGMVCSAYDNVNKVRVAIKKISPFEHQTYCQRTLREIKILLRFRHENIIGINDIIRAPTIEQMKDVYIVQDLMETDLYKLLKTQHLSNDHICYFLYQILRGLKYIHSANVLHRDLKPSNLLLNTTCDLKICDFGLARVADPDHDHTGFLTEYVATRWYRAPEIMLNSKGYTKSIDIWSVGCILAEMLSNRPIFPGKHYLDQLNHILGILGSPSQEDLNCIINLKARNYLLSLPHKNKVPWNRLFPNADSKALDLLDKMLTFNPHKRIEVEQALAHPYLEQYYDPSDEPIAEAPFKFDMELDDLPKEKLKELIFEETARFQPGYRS

SMILES | IC50 [1] [nM] | Ki (activated ERK2) [nM]
CCCCNCc1ccc(-c2cn[nH]c2-c2c[nH]c(C(=O)NC(CO)c3ccc(F)c(Cl)c3)c2)cc1Cl (stereo not shown) [II-7] | < 10000 | < 1000
CC(C)(C)OC(=O)N[C@@H](CO)C(=O)NCc1ccc(-c2cn[nH]c2-c2c[nH]c(C(=O)NC(CO)c3ccc(F)c(Cl)c3)c2)cc1Cl (stereo partly shown) [II-14] | – | < 1000
CC(=O)NC(CO)C(=O)NCc1ccc(-c2cn[nH]c2-c2c[nH]c(C(=O)N[C@H](CO)c3cccc(Cl)c3)c2)cc1Cl (stereo partly shown) [II-19] | – | < 1000
CCCN(CCC)Cc1ccc(-c2cn[nH]c2-c2c[nH]c(C(=O)N[C@H](CO)c3ccc(F)c(Cl)c3)c2)cc1Cl [II-28] | – | < 1000
CC(O)CCNCc1ccc(-c2cn[nH]c2-c2c[nH]c(C(=O)N[C@H](CO)c3ccc(F)c(Cl)c3)c2)cc1Cl (stereo partly shown) [II-32] | – | < 1000
CN[C@@H](CO)C(=O)NCc1ccc(-c2cn[nH]c2-c2c[nH]c(C(=O)N[C@H](CO)c3ccc(F)c(Cl)c3)c2)cc1Cl [II-67] | – | < 1000
CCNCc1ccc(-c2c[nH]nc2-c2c[nH]c(C(=O)N[C@H](CO)c3ccc(F)c(Cl)c3)c2)cc1Cl [II-26, 4-[4-(3-Chloro-4-ethylaminomethyl-phenyl)-1H-pyrazol-3-yl]-1H-pyrrole-2-carboxylic acid [1-(3-chloro-4-fluoro-phenyl)-2-hydroxy-ethyl]-amide] | < 10000 | < 1000
CCOC(=O)NCc1ccc(-c2cn[nH]c2-c2c[nH]c(C(=O)N[C@H](CO)c3ccc(F)c(Cl)c3)c2)cc1Cl [II-78] | – | < 1000
CC(C)N(C)Cc1ccc(-c2cn[nH]c2-c2c[nH]c(C(=O)N[C@H](CO)c3ccc(F)c(Cl)c3)c2)cc1Cl [II-54] | – | < 1000
CCCNCc1ccc(-c2cn[nH]c2-c2c[nH]c(C(=O)N[C@H](CO)c3ccc(F)c(Cl)c3)c2)cc1Cl [II-27] | – | < 1000
CC(=O)N[C@H](C(=O)NCc1ccc(-c2cn[nH]c2-c2c[nH]c(C(=O)N[C@H](CO)c3ccc(F)c(Cl)c3)c2)cc1Cl)C(C)C [II-21] | < 10000 | < 1000
NC(=O)CN(CC(N)=O)Cc1ccc(-c2cn[nH]c2-c2c[nH]c(C(=O)N[C@H](CO)c3ccc(F)c(Cl)c3)c2)cc1Cl [II-74] | – | < 1000
NCCNCc1ccc(-c2cn[nH]c2-c2c[nH]c(C(=O)N[C@H](CO)c3ccc(F)c(Cl)c3)c2)cc1Cl [II-68] | – | < 1000
